Molecular target: Aβ42 (Homo sapiens, UniProt P05067)
Experiment: Th-T (thioflavin-T) assay of Aβ42 aggregation
Format: biochemical
Details: for Th-T fluorescence, mean of three wells: Aβ42 aggregation time course

Sequence of Aβ42 (P05067 672-713): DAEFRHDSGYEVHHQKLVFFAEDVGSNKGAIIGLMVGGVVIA

How did the “first Th-T assay result” value (Aβ42 (10 μM) ± DPPs (20 μM), room temperature) turn out when `C=C1CC[C@@H]2[C@](C)(CC[C@H]3O[C@H](C=C(C)C)C[C@@]23C)[C@@H]1Cc1c(OC)oc(CO)c(C(=O)OC)c1=O` [Compound 21] was run?
The value was “clearly delayed nuclei formation of Aβ42”.

What about the “Th-T fluorescence, mean of three wells” value (reading M117) of the same compound?
The value was 1.039.

And the “Th-T fluorescence, mean of three wells” value (reading M118)?
Its value is 1.038.

What about the “Th-T fluorescence, mean of three wells” value (reading M119) of the same compound?
The value was 1.047.

What about the “Th-T fluorescence, mean of three wells” value (reading M120) of the same compound?
The value was 1.046.

And the “Th-T fluorescence, mean of three wells” value (reading M121)?
The value was 1.028.

What about the “Th-T fluorescence, mean of three wells” value (reading M122) of the same compound?
The value was 1.042.

And the “Th-T fluorescence, mean of three wells” value (reading M123)?
The value was 1.04.

And the “Th-T fluorescence, mean of three wells” value (reading M124)?
Its value is 1.043.

What about the “Th-T fluorescence, mean of three wells” value (reading M125) of the same compound?
The value was 1.031.

And the “Th-T fluorescence, mean of three wells” value (reading M126)?
Its value is 1.048.

What about the “Th-T fluorescence, mean of three wells” value (reading M127) of the same compound?
Its value is 1.027.

And the “Th-T fluorescence, mean of three wells” value (reading M128)?
The value was 1.04.

And the “Th-T fluorescence, mean of three wells” value (reading M129)?
The value was 1.041.

And the “Th-T fluorescence, mean of three wells” value (reading M130)?
Its value is 1.048.

What about the “nucleation phase of Aβ42 delayed until” value (Th-T fluorescence of Aβ42 alone began to increase after 4 h) of the same compound?
The value was 13 h.

What about the “Th-T fluorescence, mean of three wells (Fig. 7a)” value (from here on “Th-T fluorescence … (Fig. 7a)”) (column suffix _10, measurement M19) of the same compound?
Its value is 0.2262.

And the “Th-T fluorescence … (Fig. 7a)” value (column suffix _10, measurement M20)?
The value was 0.2276.

What about the “Th-T fluorescence … (Fig. 7a)” value (column suffix _10, measurement M21) of the same compound?
The value was 0.2311.

What about the “Th-T fluorescence … (Fig. 7a)” value (column suffix _10, measurement M22) of the same compound?
The value was 0.2318.

What about the “Th-T fluorescence … (Fig. 7a)” value (column suffix _10, measurement M23) of the same compound?
Its value is 0.2319.

And the “Th-T fluorescence … (Fig. 7a)” value (column suffix _10, measurement M24)?
The value was 0.2323.

And the “Th-T fluorescence … (Fig. 7a)” value (column suffix _10, measurement M25)?
Its value is 0.2332.

What about the “Th-T fluorescence … (Fig. 7a)” value (column suffix _10, measurement M26) of the same compound?
The value was 0.2371.

What about the “Th-T fluorescence … (Fig. 7a)” value (column suffix _10, measurement M27) of the same compound?
The value was 0.238.

And the “Th-T fluorescence … (Fig. 7a)” value (column suffix _10, measurement M28)?
The value was 0.2386.

And the “Th-T fluorescence … (Fig. 7a)” value (column suffix _10, measurement M29)?
The value was 0.2373.

What about the “Th-T fluorescence … (Fig. 7a)” value (column suffix _10, measurement M30) of the same compound?
The value was 0.2428.

And the “Th-T assay signal, mean of three wells (Fig. 7a)” value (“Th-T assay signal, mean” below) (column suffix _10, reading M1)?
Its value is 0.2407.

And the “Th-T assay signal, mean” value (column suffix _10, reading M2)?
The value was 0.2463.

What about the “Th-T assay signal, mean” value (column suffix _10, reading M3) of the same compound?
The value was 0.2449.

What about the “Th-T assay signal, mean” value (column suffix _10, reading M4) of the same compound?
Its value is 0.2384.

And the “Th-T assay signal, mean” value (column suffix _10, reading M5)?
The value was 0.2363.

What about the “Th-T assay signal, mean” value (column suffix _10, reading M6) of the same compound?
Its value is 0.2279.

And the “Th-T assay signal, mean” value (column suffix _10, reading M7)?
The value was 0.2237.

And the “Th-T assay signal, mean” value (column suffix _10, reading M8)?
The value was 0.2225.

And the “Th-T assay signal, mean” value (column suffix _10, reading M9)?
The value was 0.2211.

And the “Th-T assay signal, mean” value (column suffix _10, reading M10)?
The value was 0.2184.

And the “Th-T assay signal, mean” value (column suffix _10, reading M11)?
The value was 0.2174.

What about the “Th-T assay signal, mean” value (column suffix _10, reading M12) of the same compound?
Its value is 0.2206.

What about the “Th-T assay signal, mean” value (column suffix _10, reading M13) of the same compound?
The value was 0.2193.

What about the “Th-T assay signal, mean” value (column suffix _10, reading M14) of the same compound?
The value was 0.2201.

What about the “Th-T assay signal, mean” value (column suffix _10, reading M15) of the same compound?
Its value is 0.222.

What about the “Th-T assay signal, mean” value (column suffix _10, reading M16) of the same compound?
The value was 0.2237.

And the “Th-T assay signal, mean” value (column suffix _10, reading M17)?
The value was 0.228.

What about the “Th-T assay signal, mean” value (column suffix _10, reading M18) of the same compound?
The value was 0.2253.

And the “Fig. 7a Th-T reading, mean of three wells” value (shortened to “Fig. 7a Th-T reading, mean”) (column suffix _10, reading M85)?
Its value is 1.478.

And the “Fig. 7a Th-T reading, mean” value (column suffix _10, reading M86)?
The value was 1.509.

And the “Fig. 7a Th-T reading, mean” value (column suffix _10, reading M87)?
The value was 1.557.

And the “Fig. 7a Th-T reading, mean” value (column suffix _10, reading M88)?
Its value is 1.549.

And the “Fig. 7a Th-T reading, mean” value (column suffix _10, reading M89)?
The value was 1.5658.

And the “Fig. 7a Th-T reading, mean” value (column suffix _10, reading M90)?
Its value is 1.591.

And the “Fig. 7a Th-T reading, mean” value (column suffix _10, reading M91)?
Its value is 1.5663.

What about the “Fig. 7a Th-T reading, mean” value (column suffix _10, reading M92) of the same compound?
Its value is 1.592.

And the “Fig. 7a Th-T reading, mean” value (column suffix _10, reading M93)?
Its value is 1.631.

And the “Fig. 7a Th-T reading, mean” value (column suffix _10, reading M94)?
The value was 1.598.

And the “Fig. 7a Th-T reading, mean” value (column suffix _10, reading M95)?
Its value is 1.661.

What about the “Fig. 7a Th-T reading, mean” value (column suffix _10, reading M96) of the same compound?
The value was 1.586.

What about the “Fig. 7a Th-T reading, mean” value (column suffix _10, reading M97) of the same compound?
The value was 1.595.

And the “Fig. 7a Th-T reading, mean” value (column suffix _10, reading M98)?
Its value is 1.638.

What about the “Fig. 7a Th-T reading, mean” value (column suffix _10, reading M99) of the same compound?
Its value is 1.631.

What about the “Fig. 7a Th-T reading, mean” value (column suffix _10, reading M100) of the same compound?
Its value is 1.623.

What about the “Fig. 7a Th-T reading, mean” value (column suffix _10, reading M101) of the same compound?
Its value is 1.644.

What about the “Fig. 7a Th-T reading, mean” value (column suffix _10, reading M102) of the same compound?
The value was 1.607.

What about the “Fig. 7a Th-T reading, mean” value (column suffix _10, reading M103) of the same compound?
The value was 1.621.

What about the “Fig. 7a Th-T reading, mean” value (column suffix _10, reading M104) of the same compound?
Its value is 1.621.

What about the “Fig. 7a Th-T reading, mean” value (column suffix _10, reading M105) of the same compound?
The value was 1.667.

What about the “Fig. 7a Th-T reading, mean” value (column suffix _10, reading M106) of the same compound?
Its value is 1.671.

What about the “Th-T fluorescence … (Fig. 7a)” value (column suffix _20, measurement M19) of the same compound?
The value was 0.1942.

What about the “Th-T fluorescence … (Fig. 7a)” value (column suffix _20, measurement M20) of the same compound?
Its value is 0.198.

And the “Th-T fluorescence … (Fig. 7a)” value (column suffix _20, measurement M21)?
The value was 0.1975.

And the “Th-T fluorescence … (Fig. 7a)” value (column suffix _20, measurement M22)?
The value was 0.1979.

What about the “Th-T fluorescence … (Fig. 7a)” value (column suffix _20, measurement M23) of the same compound?
The value was 0.1984.

And the “Th-T fluorescence … (Fig. 7a)” value (column suffix _20, measurement M24)?
Its value is 0.2012.

And the “Th-T fluorescence … (Fig. 7a)” value (column suffix _20, measurement M25)?
The value was 0.2016.

What about the “Th-T fluorescence … (Fig. 7a)” value (column suffix _20, measurement M26) of the same compound?
The value was 0.2021.

And the “Th-T fluorescence … (Fig. 7a)” value (column suffix _20, measurement M27)?
The value was 0.2014.

And the “Th-T fluorescence … (Fig. 7a)” value (column suffix _20, measurement M28)?
The value was 0.2017.

What about the “Th-T fluorescence … (Fig. 7a)” value (column suffix _20, measurement M29) of the same compound?
The value was 0.2027.

What about the “Th-T assay signal, mean” value (column suffix _20, reading M1) of the same compound?
The value was 0.2262.

And the “Th-T assay signal, mean” value (column suffix _20, reading M2)?
The value was 0.223.

What about the “Th-T assay signal, mean” value (column suffix _20, reading M3) of the same compound?
Its value is 0.2155.

What about the “Th-T assay signal, mean” value (column suffix _20, reading M4) of the same compound?
Its value is 0.2051.

What about the “Th-T assay signal, mean” value (column suffix _20, reading M5) of the same compound?
Its value is 0.2019.

And the “Th-T assay signal, mean” value (column suffix _20, reading M6)?
The value was 0.1953.

What about the “Th-T assay signal, mean” value (column suffix _20, reading M7) of the same compound?
The value was 0.1945.

What about the “Th-T assay signal, mean” value (column suffix _20, reading M8) of the same compound?
The value was 0.1954.

What about the “Th-T assay signal, mean” value (column suffix _20, reading M9) of the same compound?
The value was 0.1943.

What about the “Th-T assay signal, mean” value (column suffix _20, reading M10) of the same compound?
The value was 0.1989.

And the “Th-T assay signal, mean” value (column suffix _20, reading M11)?
The value was 0.1963.

And the “Th-T assay signal, mean” value (column suffix _20, reading M12)?
Its value is 0.198.

And the “Th-T assay signal, mean” value (column suffix _20, reading M13)?
Its value is 0.1957.

And the “Th-T assay signal, mean” value (column suffix _20, reading M14)?
The value was 0.1953.

What about the “Th-T assay signal, mean” value (column suffix _20, reading M15) of the same compound?
Its value is 0.1958.

What about the “Th-T assay signal, mean” value (column suffix _20, reading M16) of the same compound?
The value was 0.1968.

What about the “Th-T assay signal, mean” value (column suffix _20, reading M17) of the same compound?
Its value is 0.1967.

And the “Th-T assay signal, mean” value (column suffix _20, reading M18)?
Its value is 0.1963.

What about the “Fig. 7a Th-T reading, mean” value (column suffix _20, reading M85) of the same compound?
The value was 0.5666.

And the “Fig. 7a Th-T reading, mean” value (column suffix _20, reading M86)?
Its value is 0.5976.

What about the “Fig. 7a Th-T reading, mean” value (column suffix _20, reading M87) of the same compound?
The value was 0.6445.

What about the “Fig. 7a Th-T reading, mean” value (column suffix _20, reading M88) of the same compound?
The value was 0.6876.

And the “Fig. 7a Th-T reading, mean” value (column suffix _20, reading M89)?
Its value is 0.7312.

And the “Fig. 7a Th-T reading, mean” value (column suffix _20, reading M90)?
The value was 0.7695.

What about the “Fig. 7a Th-T reading, mean” value (column suffix _20, reading M91) of the same compound?
The value was 0.7994.

And the “Fig. 7a Th-T reading, mean” value (column suffix _20, reading M92)?
Its value is 0.8356.

And the “Fig. 7a Th-T reading, mean” value (column suffix _20, reading M93)?
Its value is 0.8329.

What about the “Fig. 7a Th-T reading, mean” value (column suffix _20, reading M94) of the same compound?
Its value is 0.8638.

And the “Fig. 7a Th-T reading, mean” value (column suffix _20, reading M95)?
Its value is 0.8786.

And the “Fig. 7a Th-T reading, mean” value (column suffix _20, reading M96)?
Its value is 0.9004.

And the “Fig. 7a Th-T reading, mean” value (column suffix _20, reading M97)?
Its value is 0.8843.

And the “Fig. 7a Th-T reading, mean” value (column suffix _20, reading M98)?
The value was 0.903.

And the “Fig. 7a Th-T reading, mean” value (column suffix _20, reading M99)?
The value was 0.9153.

What about the “Fig. 7a Th-T reading, mean” value (column suffix _20, reading M100) of the same compound?
The value was 0.9048.

Reference: paper PMC7156458, “Synthetic biology based construction of biological activity-related library of fungal decalin-containing diterpenoid pyrones” (Nature Communications, 2020)
